According to US20140228278A1, “ANTIBIOTICS AND METHODS FOR MANUFACTURING THE SAME” (priority 2011, published 2014):
Converted amounts (≈) assume the structure as drawn.

Tests used:
Bacillus brevis ATCC8246 = type: cell-based; set-up: key: ++: inhibition; +: weak inhibition; −: no inhibition
Bacillus subtilis 168 = assay: Agar bioassay, growth suppression seen as clear zone; type: cell-based; set-up: key: ++: inhibition; +: weak inhibition; −: no inhibition; settings: indicator strain Bacillus subtilis 168
[1] = test system: Bacillus cereus ATCC14579; type: cell-based; set-up: key: ++: inhibition; +: weak inhibition; −: no inhibition
[2] = test system: Bacillus licheniformis ATCC9789; type: cell-based; set-up: key: ++: inhibition; +: weak inhibition; −: no inhibition
Micrococcus luteus = type: cell-based; set-up: key: ++: inhibition; +: weak inhibition; −: no inhibition
Bacillus pumilus = type: cell-based; set-up: key: ++: inhibition; +: weak inhibition; −: no inhibition
Bacillus subtilis CU1065 = assay: Agar bioassay, growth suppression seen as clear zone; type: cell-based; set-up: key: ++: inhibition; +: weak inhibition; −: no inhibition; settings: indicator strain Bacillus subtilis CU1065
Bacillus subtilis HB0042 = assay: as above; type: cell-based; set-up: key: ++: inhibition; +: weak inhibition; −: no inhibition; settings: indicator strain Bacillus subtilis HB0042
Bacillus sphaericus = type: cell-based; set-up: key: ++: inhibition; +: weak inhibition; −: no inhibition
Paenibacillus polymyxa = type: cell-based; set-up: key: ++: inhibition; +: weak inhibition; −: no inhibition
[3] = test system: Paenibacillus granivorans; type: cell-based; set-up: key: ++: inhibition; +: weak inhibition; −: no inhibition
Bacillus megaterium 7A1 = type: cell-based; set-up: key: ++: inhibition; +: weak inhibition; −: no inhibition
Arthrobacter sp. = type: cell-based; set-up: key: ++: inhibition; +: weak inhibition; −: no inhibition
Staphylococcus aureus = assay: Agar bioassay, growth suppression seen as clear zone; type: cell-based; set-up: key: ++: inhibition; +: weak inhibition; −: no inhibition; settings: indicator strain Staphylococcus aureus
E. coli K12 = assay: as above; type: cell-based; set-up: key: ++: inhibition; +: weak inhibition; −: no inhibition; settings: indicator strain E. coli K12
Klebsiella terrigena = assay: as above; type: cell-based; set-up: key: ++: inhibition; +: weak inhibition; −: no inhibition; settings: indicator strain Klebsiella terrigena
Pseudomonas sp. = assay: as above; type: cell-based; set-up: key: ++: inhibition; +: weak inhibition; −: no inhibition; settings: indicator strain Pseudomonas sp.
Erwinia caratovora = type: cell-based; set-up: key: ++: inhibition; +: weak inhibition; −: no inhibition
[4] = test system: B. anthracis strain Sterne; type: cell-based, Bacillus anthracis
Streptococcus pyogenes = type: cell-based
Listeria monocytogenes = type: cell-based
[5] = test system: Enterococcus faecalis st. U503 [VRE]; type: cell-based
[6] = test system: Staphylococcus aureus st. NRS384/USA300 [MRSA]; type: cell-based
B. amylo. FZB42 = type: cell-based, Bacillus amyloliquefaciens
B. pumilus ATCC 7061 = type: cell-based, Bacillus pumilus
B. amylo. (NRRL B-14393) = type: cell-based, Bacillus amyloliquefaciens
[7] = test system: any other tested bacterium; type: cell-based
[8] = test system: B. anthracis strain Sterne; type: cell-based, Bacillus anthracis; remark: listed apart in the source
B. anthracis = type: cell-based, Bacillus anthracis

Structure (SMILES): CC[C@H](C)[C@H](NC(=O)c1nc(-c2nc(-c3csc(-c4nc(-c5csc(C(CCCN=C(N)N)N(C)C)n5)oc4C)n3)oc2C)oc1C)C(=O)N[C@H](c1nc(-c2nc(-c3nc(-c4nc(C5=NC(C(=O)N[C@@H](Cc6ccccc6)C(=O)O)C(C)O5)co4)co3)co2)co1)[C@@H](C)CC (stereo partly drawn) [PZN, plantazolicin]
- Degree of inhibition in a bioassay (Bacillus brevis ATCC8246): +
- Degree of inhibition in a bioassay (Bacillus subtilis 168): +
- Degree of inhibition in a bioassay [1]: +
- Degree of inhibition in a bioassay [2]: +
- Degree of inhibition in a bioassay (Micrococcus luteus): +
- Degree of inhibition in a bioassay (Bacillus pumilus): −
- Degree of inhibition in a bioassay (Bacillus subtilis CU1065): +
- Degree of inhibition in a bioassay (Bacillus subtilis HB0042): ++
- Degree of inhibition in a bioassay (Bacillus sphaericus): +
- Degree of inhibition in a bioassay (Paenibacillus polymyxa): −
- Degree of inhibition in a bioassay [3]: +
- Degree of inhibition in a bioassay (Bacillus megaterium 7A1): ++
- Degree of inhibition in a bioassay (Arthrobacter sp.): −
- Degree of inhibition in a bioassay (Staphylococcus aureus): −
- Degree of inhibition in a bioassay (E. coli K12): −
- Degree of inhibition in a bioassay (Klebsiella terrigena): −
- Degree of inhibition in a bioassay (Pseudomonas sp.): −
- Degree of inhibition in a bioassay (Erwinia caratovora): −
- Growth inhibition / activity against B. anthracis in microbroth dilution bioassay [4]: potent growth inhibition
- MIC99 [4]: 4 µg/mL (≈ 2.99 µM)
- Growth inhibition in microbroth dilution bioassay (Streptococcus pyogenes): only inhibited by very high concentrations
- Growth inhibition in microbroth dilution bioassay (Listeria monocytogenes): unaffected
- Growth inhibition in microbroth dilution bioassay [5]: unaffected
- Growth inhibition in microbroth dilution bioassay [6]: unaffected
- Susceptibility to the action of PZN (B. amylo. FZB42): no observable inhibition
- Susceptibility to the action of PZN (B. pumilus ATCC 7061): no observable inhibition
- Susceptibility to the action of PZN (B. amylo. (NRRL B-14393)): completely resistant
- Inhibition zones in agar diffusion bioassay [7]: inhibition zones were not observed
- Mode of action (bactericidal) on reculturing of treated cells in the absence of PZN [8]: bactericidal
- Cell morphology by DIC microscopy (B. anthracis): massive lysis
